Converted amounts (≈) assume the structure as drawn.
What was measured:
[1] = Solubility of roxithromycin forms in buffer media and water, excess solid, 37 degrees Celsius, 24 h, HPLC assay; format: physicochemical; conditions: for solubility at 24 h: 37 °C, thermodynamic from solid, 37 degrees Celsius
Description: In further analysis of the novel Form-III, each of five replicate test tubes were filled with an excess of the amorphous form (Form-III) of roxithromycin and 10 ml of solubility medium. The process was performed with each of the following mediums: acetate buffer (pH 4.5), phosphate buffer (pH 6.8), distilled water and 0.1 M HCl. The phosphate buffer comprises potassium dihydrogen phosphate, disodium hydrogen phosphate and water. The acetate buffer comprises ammonium acetate, glacial acetic acid and water. This method was also used for testing the prior art anhydrous roxithromycin.
The test tubes were fixed to a rotating axis (54 rpm) and submerged in a water bath at 37 degrees Celsius±2 degrees Celsius for twenty-four hours. The contents of the test tubes were filtered through a 0.45 μm filter and subsequently the respective filtrates were diluted.
The concentrations of the four filtrates of amorphous form (Form-III) of roxithromycin and roxithromycin raw material were respectively determined by HPLC (high performance liquid chromatography) assay. The HPLC assay was performed utilising a mobile phase of 30 g/L ammonium dihydrogen phosphate buffer at pH 5.3. The pH was adjusted with sodium hydroxide solution. The mobile phase comprised of buffer (600) and acetonitrile (400). A Luna C18 150 mm×4.6 mm column was used with a flow rate of 1.0 ml/min and a wavelength of 205 nm. Validation of this method provided a linear regression, R^2, of 0.9998.

[2] = Stability trial at increased temperature and 75% relative humidity for 4 weeks (TGA, XRPD, IR); format: physicochemical
Description: During further stability analysis, samples of both the raw material and amorphous form (Form-III) of roxithromycin were kept at 25 degrees Celsius and 75% relative humidity (RH) (FIG. 7); 30 degrees Celsius and 75% relative humidity (FIG. 8); and 40 degrees Celsius and 75% relative humidity, for a period of 4 weeks. The samples were analysed by thermogravimetric analysis (TGA) and percentage weight loss/gain was determined.
It is evident from FIGS. 7 and 8 that after week 4 of a stability trial an amount of approximately 2.5% moisture is absorbed by the samples. The TGA results obtained for the samples stored at 40° C./75% RH (FIG. 9) did however not show the same extent of moisture absorption as that obtained with the samples of FIGS. 7 and 8. […] No moisture-induced recrystallisations of the amorphous form were observed. […] The amorphous form (Form-III) could therefore be regarded as stable against increased temperatures and humidity.
The IR data illustrates that the absorbed moisture was not structurally absorbed within the molecule, but only absorbed on the surface of the structure. This is confirmed by the peak between wavenumbers 3580 to 3464 cm^−1 that represents the —OH bands of roxithromycin raw material and the lack of peaks in the amorphous form (Form-III) of roxithromycin. […]

Structure (SMILES)	stability in 0.1 M HCl ([1]; 0.1 M HCl solubility medium, results omitted for both forms)	solubility at 24 h ([1]; aqueous buffer, acetate buffer (pH 4.5))	solubility at 24 h ([1]; aqueous buffer, phosphate buffer (pH 6.8))	solubility at 24 h ([1]; distilled water)	solid-state stability of the amorphous form ([2]; 25, 30 and 40 degrees Celsius, 75% RH, 4 weeks)	recrystallisation (XRPD) ([2]; storage four weeks at 40 degrees Celsius and 75% relative humidity)
CC[C@H]1OC(=O)[C@H](C)[C@@H](O[C@H]2C[C@@](C)(OC)[C@@H](O)[C@H](C)O2)[C@H](C)[C@@H](O[C@@H]2O[C@H](C)C[C@H](N(C)C)[C@H]2O)[C@](C)(O)C[C@@H](C)/C(=N\OCOCCOC)[C@H](C)[C@@H](O)[C@]1(C)O [roxithromycin, 3R, 4S, 5S, 6R, 7R, 9R, 11S, 12R, 13S, 14R-6-[(2S,3R,4S,6R)-4-dimethylamino-3-hydroxy-6-methyloxan-2-yl]oxy-14-ethyl-7,12,13-trihydroxy-4-[(2R,4R,5S,6S)-5-hydroxy-4-methoxy-4,6-dimethyloxan-2-yl]oxy-10-(2-methoxyethoxymethoxyimino)-3,5,7,9,11,13-hexamethyl-1-oxacyclotetradecan-2-one]	rapid degradation	–	–	–	–	–
CC[C@H]1OC(=O)[C@H](C)[C@@H](O[C@H]2C[C@@](C)(OC)[C@@H](O)[C@H](C)O2)[C@H](C)[C@@H](O[C@@H]2O[C@H](C)C[C@H](N(C)C)[C@H]2O)[C@](C)(O)C[C@@H](C)/C(=N\OCOCCOC)[C@H](C)[C@@H](O)[C@]1(C)O [Form-III, roxithromycin]	–	1.15 ± 0.0065 mg/mL (≈ 1370 µM)	0.208 ± 0.0037 mg/mL (≈ 249 µM)	0.0086 ± 0.0018 mg/mL (≈ 10.3 µM)	stable over a period of 4 weeks and did not recrystallise to a crystalline form	no recrystallisation
